According to patent US10000771B2, “Nuclear targeting sequences” (Yeda Research and Development Co. Ltd., priority 2007, dated 2018):
Ends that are not written are not given here. 2GFP = dimer of GFP proteins

Assays:
Type in all cases: cell-based
COS7 cells = experiment: Subcellular fractionation of 2GFP chimeras
Experimental: FIG. 9A is an autoradiograph illustrating the subcellular fractionation of transfected SPS, APA, and EPE peptides fused to a 2GFP in COS7 cells. Western blot analysis of aliquots of the fractions were stained with anti GFP Ab to detect the different chimaras, and with anti tubulin and anti c-Jun Abs as markers for the cytoplasmic and nuclear fractions respectively.
Cellular Fractionation: Transfected COS7 cells were starved (0.1% FBS) for 16 h, after which they were washed with ice-cold PBS, suspended in ice-cold buffer H, and centrifuged (12,000×g, 5 min). Then, the nuclear and cytosolic fractions were isolated as described [H. Rubinfeld, T. Hanoch, R. Seger, J. Biol. Chem. 274, 30349 (1999)]. Briefly, the pellets were suspended in 0.1% NP-40 followed by centrifugation (12,000×g, 5 min). The supernatant, containing the cytosolic fraction, was boiled in sample buffer. The pellet was suspended in extraction buffer (420 mM Nacl, 50 mM β-glycerophosphate, 0.5 mM Na3VO4, 1.5 mM MgCl2, 0.2 mM EDTA, 1 mM DTT, 25% glycerol), incubate on ice for 10 min, sonicated (50 W, 2×7 sec), and centrifuged (12,000×g, 5 min). The supernatant, containing the nuclear fraction, was subjected to Western blot.

CHO cells [1] = experiment: Fluorescence microscopy of 2GFP chimeras (subcellular localization); conditions: 24 hr post transfection, serum-starved
Experimental: FIGS. 8A-8H are photomicrographs illustrating that SPS, APA, and EPE peptides fused to a 2GFP chimera modify its subcellular localization. CHO cells were grown on cover slips and transfected with 19 amino acid from the kinase insert domain of ERK2 including the SPS region (GFP-SPS) fused to a 2GFP chimera and with the same chimeras with substitution of the Ser to Ala (GFP-APA) or substitution to Glu (GFP-EPE). Twenty-four hr later, the cells were serum-starved for 16 hr, fixed, stained with DAPI and visualized by a fluorescence microscope.
(§1) Immunofluorescence Microscopy. Cells were fixed (30 min in 3% paraformaldehyde in PBS or 10 min with ice-cold methanol), followed by 5-min permeabilization with 0.2% Triton X-100 in PBS (23° C.). The fixed cells were sequentially incubated with the appropriate Abs (45 min) followed by rhodamine-conjugated secondary Abs (45 min) and DAPI. Slides were visualized using a fluorescence microscope (Nikon, Japan) at 400× magnifications.
To validate the general importance of the SPS domain, a 19 amino acid sequence surroundings the SPS or the APA and EPE mutants was fused to a dimer of GFP proteins (2GFP). Cellular distribution of the chimeras was detected in CHO cells 24 hr post transfection of the GFP constructs.

endogenous ERKs = experiment: Effect of 2GFP chimeras on nuclear translocation of endogenous ERKs; conditions: CHO cells overexpressing the chimera, TPA 250 nM, 15 min
Experimental: FIGS. 10A-10X illustrate the effects of the 2GFP chimeras on the nuclear translocation of endogenous ERKs. CHO cells overexpressing 2GFP, 2GFP-SPS, 2GFP-APA and 2GFP-EPE were serum starved and treated with or without TPA (250 nM, 15 min). Subsequently, the cells were fixed and stain with anti-ERK2 (C-14) Ab and with DAPI.
as §1

CHO cells [2] = experiment: Fluorescence microscopy of ERK2 constructs (subcellular localization)
Experimental: FIGS. 1A-1R are photomicrographs illustrating the role of SPS in the non-regulated accumulation of ERK2 in the nucleus. CHO (FIGS. 1A-F and 1M-R) or COS7 cells (FIGS. 1G-L) were grown on cover slips and transfected with WT-ERK2, or the mutants 244-6A and Δ244-6. Twenty-four hr following transfection, the cells were serum-starved (16 hr), fixed, stained with DAPI and visualized using a fluorescent microscope.
FIGS. 2A-2X are photomicrographs illustrating the role of SPS in the stimulated nuclear translocation of ERK2. CHO cells were grown on cover slips and co-transfected with HA-MEK1 together with either WT-ERK2, 244-6A, or Δ244-6. Twenty-four hr after transfection, the cells were serum starved for 16 hours, treated with TPA (250 nM, 15 min), except in WT-10 where the cells were treated with 10 nM TPA for 15 min. After treatments the cells were fixed and stained with either anti-HA Ab or DAPI.
FIGS. 5A-5F are photomicrographs illustrating that mutating the Ser residues in the SPS to Glu induces the nuclear accumulation of ERK2. CHO cells were grown on cover slips and transfected with WT-GFP-ERK2 (WT), APA-GFP-ERK2 (APA), or EPE-GFP-ERK2 (EPE). […]
Immunofluorescence Microscopy. […] Slides were visualized using a fluorescence microscope (Nikon, Japan) at 400× magnifications. […]

## 2GFP-SPS: 2GFP with the 19 amino acid stretch containing the SPS of ERK2 (SEQ ID NO: 6) fused to its C terminus (2GFP-LDQLNHILGILGSPSQEDL)
COS7 cells
  localized in the nucleus: 15%
CHO cells [1]
  cellular distribution: localized throughout the cell
Endogenous ERKs
  inhibition of TPA-induced translocation of endogenous ERKs: inhibited

## WT-ERK2: wild-type ERK2 fused to GFP, prepared in pEGFP C1 [reference compound]
CHO cells [2]; CHO cells cotransfected with MEK1, TPA 250 nM
  localization upon TPA stimulation: translocated into the nucleus upon TPA stimulation
CHO cells [2]; CHO cells cotransfected with MEK1, TPA 10 nM for WT-ERK2 and 250 nM for the mutants
  localization at equivalent TEY phosphorylation levels: localized to the nucleus
